In PMC7031697, “Mechanism of Activation of AMPK by Cordycepin” (Cell Chemical Biology, 2020):

How the values were obtained:
[1] = system: AMPK DKO U2OS cells; test: Clonal survival assay, AMPK DKO U2OS; format: cell-based; conditions: Homo sapiens, 8 h incubation, read-out: half-maximal effect on clonal survival
Source text: AMPK-α1^-/- -α2^-/- U2OS cells were generated using the Cas9 (D10A) double nickase system. Pairs of guide RNAs targeted to exon 4 in both PRKAA1 and PRKAA2, along with screening primers for genotyping, were designed and cloned by Thomas Macartney and are available by contacting MRCPPU Reagents and Services (https://mrcppureagents.dundee.ac.uk). Sense guides were cloned into the puromycin-selectable pBABED puro U6 vector and antisense guides into the Cas9 (D10A) vector pX335. U2OS cells carrying a Flp recombinase target site were transfected with 1 μg of each plasmid using Fugene6 according to manufacturers’ instructions. At 24 and 48 hr after transfection, medium was replaced with fresh medium containing 1 μg/ml puromycin. […] Clones were expanded and screened for loss of AMPK protein and activity by Western blotting using anti-AMPK-α and pACC antibody normalised to total ACC detected using streptavidin. […]
Cells were seeded into 6-well plates at equal density and treated in triplicate at 40% to 60% confluence with vehicle or cordycepin for the indicated time. […] Cells in control wells were counted using a hemocytometer and 1000 cells from vehicle and cordycepin-treated wells were seeded in triplicate into 10 cm dishes containing 10 ml of medium. […] The dishes were washed with water and the number of colonies counted manually.

[2] = system: HepG2 cells; test: Cellular content of adenine and cordycepin nucleotides by LC-MS; format: cell-based, human; conditions: 1 h
Method: After treatment, cells for nucleotide analysis were lysed in 70% perchloric acid and the acid extracted as described previously ([Hawley et al., 2010]). The levels of AMP, ADP, ATP, CoMP, CoDP and CoTP were measured using a TSQ Quantiva (with an ion Max NG source) interfaced with an Ultimate 3000 Liquid Chromatography system (ThermoScientific). Separation of all compounds was achieved using a porous graphitic carbon column (HyperCarb 30x1 mm ID […]; Part No: C-35003-031030, Thermo-Scientific) as described previously ([Ross et al., 2017]) with some modifications. Mobile phase buffer A consisted of 0.3% (v/v) formic acid adjusted to pH 9 with ammonia prior to a 1:10 dilution. Mobile phase buffer B was 80% (v/v) acetonitrile. The column was maintained at a controlled temperature of 40°C and equilibrated with 10% buffer B for 5 min at a constant flow rate of 0.05 mL/min. Aliquots of 1μL of each sample were loaded onto the column and compounds eluted with a linear gradient from 10% buffer B to 12% buffer B within 1 min, then 12% B to 100% B within 2 min; the column was then washed for 4 min with 100% Buffer B. Eluents were sprayed into the TSQ Quantiva using Ion Max NG ion source with ion transfer tube temperature at 350°C and vaporizer temperature 30°C. The TSQ Quantiva was run in negative mode with a spray voltage of 3500, sheath gas 40, aux gas 20 and sweep gas 2. Levels of ATP, ADP and AMP were measured using multiple reactions monitoring mode (MRM) with transitions described previously ([Ross et al., 2017]). For CoMP, CoDP and CoTP, optimised collision energies and radio frequencies were determined by infusing the pure compounds. Two transitions were used to monitor each of the three compounds, CoMP (330.22>134.01, 330.22>195.11), CoDP (410>256.67, 410>392.0) and CoTP (490>158.89, 490.11>472.11).

[3] = target: T1, AMPK complexes containing the R531G mutant (Homo sapiens, UniProt Q9UGJ0, R531G); test: AMPK activity in anti-FLAG immunoprecipitates, HepG2 cells with FLAG-tagged AMPK-γ2 R531G mutant; format: cell-based; conditions: 1 h, 300 μM cordycepin, 10 mM phenformin or 300 μM A-769662
T1 construct: expressed in transfected cells; host or cells: HepG2 (transient, Fugene 6)
T1 sequence (Q9UGJ0 whole entry R531G, one chain of several): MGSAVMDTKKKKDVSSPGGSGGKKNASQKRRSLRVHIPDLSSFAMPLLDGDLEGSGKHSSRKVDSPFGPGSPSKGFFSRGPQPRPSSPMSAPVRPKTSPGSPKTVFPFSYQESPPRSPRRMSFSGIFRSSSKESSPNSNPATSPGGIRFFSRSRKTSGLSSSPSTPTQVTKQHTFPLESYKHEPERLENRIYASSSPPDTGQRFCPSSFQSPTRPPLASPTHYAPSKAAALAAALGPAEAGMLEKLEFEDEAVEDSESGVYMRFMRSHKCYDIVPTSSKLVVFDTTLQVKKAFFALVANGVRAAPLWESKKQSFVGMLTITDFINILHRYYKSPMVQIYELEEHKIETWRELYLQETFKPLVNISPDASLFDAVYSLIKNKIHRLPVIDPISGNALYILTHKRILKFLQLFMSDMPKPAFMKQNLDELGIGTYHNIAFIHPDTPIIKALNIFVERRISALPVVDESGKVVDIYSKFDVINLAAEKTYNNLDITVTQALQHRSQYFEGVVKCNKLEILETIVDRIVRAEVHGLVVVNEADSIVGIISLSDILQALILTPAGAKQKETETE
Method: (§1) HepG2 cells ([…]) were cultured in Minimum Essential Medium (MEM) supplemented with 10% (v/v) FBS, 1% (v/v) non-essential amino acids and 1% (v/v) penicillin/streptomycin. Transient transfection of DNAs encoding FLAG-tagged AMPK-γ2 or an R531G mutant of AMPK-γ2 were carried out 36-48 hr prior to experiments using Fugene 6 according to manufacturers’ instructions. U2OS cells ([…]) were cultured in Dulbecco’s Modified Eagle’s Medium (DMEM) supplemented with 10% (v/v) FBS and 1% (v/v) penicillin/streptomycin.
(§2) HepG2 cells were transiently transfected with DNAs encoding FLAG-tagged wild type AMPK-γ2 or the R531G mutant, using Fugene 6 according to the manufacturers’ instructions. After transfection for 48 hr, cells were treated with various agents as described, and cell lysates prepared ([Hawley et al., 2018]). FLAG-tagged AMPK was then immunoprecipitated from 150 μg total protein by incubation at 4°C for 2 hr on a roller mixer with 9 μl of EZview Red anti-FLAG M2 affinity gel. After extensive washing, the immunoprecipitates were assayed for AMPK activity (50 μg per assay in a total volume of 50 μl) using the AMARA peptide (200 μM) as substrate in the presence of 200 μM AMP, 5 mM MgCl2 and 200 μM γ-^32P-ATP as described previously ([Fyffe et al., 2018]).

[4] = target: T2, AMPK complexes containing WT γ2 (Homo sapiens, UniProt Q9UGJ0); test: AMPK activity in anti-FLAG immunoprecipitates, HepG2 cells with FLAG-tagged WT AMPK-γ2; format: cell-based; conditions: 1 h, 300 μM cordycepin, 10 mM phenformin or 300 μM A-769662
T2 construct: expressed in transfected cells; host or cells: HepG2 (transient, Fugene 6)
T2 sequence (Q9UGJ0 whole entry, one chain of several): as the sequence (Q9UGJ0 whole entry R531G, one chain of several) above, with G531R counted along it
Method: as §1, §2

[5] = system: wild-type (WT) U2OS cells; test: Clonal survival assay, wild-type U2OS; format: cell-based; conditions: Homo sapiens, 8 h incubation, read-out: half-maximal effect on clonal survival
Method: Cells were seeded into 6-well plates at equal density and treated in triplicate at 40% to 60% confluence with vehicle or cordycepin for the indicated time. Cells were trypsinized in 1 ml trypsin:EDTA for 5 min and diluted in 1 ml of complete medium. Cells in control wells were counted using a hemocytometer and 1000 cells from vehicle and cordycepin-treated wells were seeded in triplicate into 10 cm dishes containing 10 ml of medium. The dishes were incubated at 37°C for 10-15 days. On the last day, the medium was decanted, cells fixed with ice-cold methanol for 10 min and stained with 10% v/v Giemsa stain in water for 15 min. The dishes were washed with water and the number of colonies counted manually.

[6] = system: AMPK; test: AMPK activation in HepG2 cells in medium without serum but with 0.02% BSA; format: cell-based, human; conditions: medium with 0.02% BSA vs 10% serum
Method: (§3) Endogenous AMPK in crude cell lysates was first immunoprecipitated using an equal mixture of anti-α1 and –α2 antibodies (150 μg protein) by incubation at 4°C for 2 hr on a roller mixer. After extensive washing, the immunoprecipitates were assayed for AMPK activity (50 μg per assay, total assay volume 50 μl) using the AMARA peptide (200 μM) as substrate in the presence of 200 μM AMP, 5 mM MgCl2 and 200 μM [γ-^32P]ATP ([Fyffe et al., 2018]).

[7] = system: AMPK; test: AMPK activity in anti-AMPK-α immunoprecipitates from HepG2 cells treated with cordycepin; format: cell-based, human
Method: as §1, §3

Nc1ncnc2c1ncn2[C@@H]1O[C@H](CO)C[C@H]1O [cordycepin, 3′-deoxyadenosine]
EC50 [1]: 44 ± 2 µM
AMPK activation and CoMP formation ([2]; 30 μM cordycepin or below): neither AMPK activation nor CoMP formation was observed
decrease in cellular ADP content ([2]; 1 mM cordycepin): 14 fold
decrease in cellular AMP content ([2]; 1 mM cordycepin): 5 fold
drop in cellular ATP content ([2]; 1 mM cordycepin): 100 fold
activation of AMPK complexes containing the R531G mutant [3]: not activated
activation of AMPK complexes containing WT γ2 [4]: activated
EC50 [5]: 81 ± 4 µM
potency of AMPK activation compared with medium containing serum [6]: much more potent
AMPK activation ([7]; 30 μM cordycepin, 1 h, medium with serum): No activation was evident
time of return of AMPK phosphorylation and activation to baseline ([7]; 100 μM cordycepin, time course): ≤ 4 h
peak increase in phosphorylation and activation of AMPK ([7]; 100 μM cordycepin, time course, at 1 h): ≈ 2 fold
EC50 ([7]; cordycepin 1 h, medium with serum, read-out: half-maximal effect (EC50) on AMPK kinase activity): 310 ± 60 µM
kinase activity of AMPK, maximum increase ([7]; cordycepin 1 h, medium with serum, ±SEM): 7 ± 1 fold
